Source: patent publication US9012481B2, “Benzoarylureido compounds, and composition for prevention or treatment of neurodegenerative brain disease containing the same” (Korea Institute of Science and Technology, priority 2009, dated 2015)
Like-named read-outs stand apart in the source and are kept apart here.

Key:
[1] = system: BV-2 cells; assay: Cell viability (MTT analysis) of beta-amyloid treated BV-2 cells; type: cell-based; details: Mus musculus, BV-2 cells, average of three experiments
Experimental: Beta-amyloid (Aβ25-35, Sigma Chemical Co., St. Louis, Mo., USA) was diluted with aseptic desalted water and preservative solution (1 mM, GIBCO), and kept in aliquots at −70° C. To the treatment of beta-amyloid, beta-amyloid preservative solution was diluted to desired concentrations in a treatment medium (DMEM, GIBCO). The reagents were newly provided as a preservative solution (10 mM) under DMSO (dimethylsulfoxide), and diluted in treatment medium to desired concentrations.
BV-2 microglia cells (allotted from Pharmacology Division of Ajou University) were cultivated in DMEM (Dulbecco's Modified Eagle's Medium) supplemented with 5% fetal bovine serum (Invitrogen, Carlsbad, Calif., USA), sou/Ml penicillin (Invitrogen, Carlsbad, Calif., USA), and 50 μg/Ml streptomycin (Invitrogen, Carlsbad, Calif., USA) under the atmosphere condition with 5% CO2 and 95% air at 37° C. The medium was replaced once a day, the cells were plate-cultured in a density according to the scale of each experiment.
BV-2 cells were plate-cultured in 96-well plate at the density of 5×10^4, the cell viability was measured according to a conventional MTT analysis method and lactate dehydrogenase (LDH) analysis method. The MTT analysis depends on the metabolism ability of mitochondria of living cell, and reflexes intracellular redox states. The cultured cells were treated with MTT a solution (final concentration: 1 mg/Ml) for 4 hours. Deep blue formazan crystal generated in the original cells was dissolved in a lysis buffer, and then, the absorbance was detected at 595 nm with microplate reader. The LDH activity released from the culture medium was detected, which was evaluated as a cell death index. The culture medium was added to a reagent (test, Sigma Chemical Co, St. Louis, Mo., USA) containing sodium lactate, NADH and sodium pyruvate, and then, the absorbance reduction by NADH at 340 nm was measured. The result was calculated assuming that the LDH activity in homogenate solution of the non-treated control is 100%.
[…] For microscope analysis, BV-2 cells were used in 6-well plate at the density of 5×10^5 cells/well, for MTT analysis, BV-2 cells were used in 96-well plate at the density of 5×10^4 cells/well.
The obtained prevention effects of KHG25967 compound on toxicity induced by beta-amyloid in BV-2 cells were FIGS. 1A and 1b.
For MTT analysis, BV-2 cells were used on 96-well plate in the density of 5×10^4 cells/well. The quantitative analysis results (unit: %) for the cell viability obtained by MTT analysis were shown in Table 2, wherein the values are represented by the average of three experiments per each concentration.

[2] = BV-2, read-out: cell viability by MTT analysis, compound 500 nM for 24 hours after 50 μM beta-amyloid for 2 hours
[3] = compound 500 nM for 24 hours after 50 μM beta-amyloid for 2 hours, read-out: cell viability by MTT analysis
[4] = compound 50 μM for 24 hours after 50 μM beta-amyloid for 2 hours, read-out: cell viability by MTT analysis

| Compound | melting point | further results |
| --- | --- | --- |
| CCOC(=O)CNC(=O)Nc1nc2cc(C)c(C)cc2s1 [KHG26353, ethyl 2-(3-(5,6-dimethylbenzo[d]thiazole-2-yl)ureido)acetate] | 268 °C | – |
| O=C([O-])CNC(=O)Nc1nc2c(Cl)cccc2s1.[K+] [KHG26178, potassium 2-(3-(4-chlorobenzo[d]thiazole-2-yl)ureido)acetate] | 259 °C | viability at 0.5 µM [1, 2]: 59% |
| Cn1c(NC(=O)NCCC(=O)O)nc2ccccc21 [KHG26357, 3-(3-(1-methyl-1H-benzo[d]imidazole-2-yl)ureido)propane acid] | 237 °C | – |
| O=C(O)CNC(=S)Nc1nc2ccc(Cl)cc2s1 [KHG26341, 2-(3-(6-chlorobenzo[d]thiazole-2-yl)thioureido)acetic acid] | 193 °C | viability at 0.5 µM [1, 3]: 67% |
| CCOC(=O)CNC(=O)Nc1nc2ccc(Cl)cc2o1 [KHG25989, ethyl 2-(3-(6-chlorobenzo[d]oxazole-2-yl)ureido)acetate] | – | viability at 50 µM [1, 4]: 55% |
| CCOC(=O)CNC(=O)Nc1nc2ccc(OC)cc2s1 [KHG26019, ethyl 2-(3-(6-methoxybenzo[d]thiazole-2-yl)ureido)acetate] | 281.9 °C | viability at 50 µM [1, 4]: 47% |
| Cn1c(NC(=O)NCCC(=O)O)nc2ccccc21 [KHG26222, potassium 3-(3-(1-methyl-1H-benzo[d]imidazole-2-yl)ureido)propanoate] | – | viability at 0.5 µM [1, 2]: 33% |
| CCOc1ccc2nc(NC(=S)NCC(=O)O)sc2c1 [KHG26336, 2-(3-(6-ethoxybenzo[d]thiazole-2-yl)thioureido)acetic acid] | 200 °C | viability at 0.5 µM [1, 3]: 67% |
| Cc1ccc2nc(NC(=O)NCC(=O)O)sc2c1 [KHG26355, 2-(3-(6-methylbenzo[d]thiazole-2-yl)ureido)acetic acid] | 201 °C | – |
| CCOC(=O)CNC(=S)Nc1nc2ccc(OC)cc2s1 [KHG26308, ethyl 2-(3-(6-methoxybenzo[d]thiazole-2-yl)thioureido)acetate] | 324 °C | viability at 0.5 µM [1, 3]: 44% |
| Cc1cc2nc(NC(=O)NCC(=O)O)sc2cc1C [KHG26354, 2-(3-(5,6-dimethylbenzo[d]thiazole-2-yl)ureido)acetic acid] | 198 °C | – |
| Cc1cc2nc(NC(=O)NCC(=O)[O-])sc2cc1C.[K+] [KHG26180, potassium 2-(3-(5,6-dimethylbenzo[d]thiazole-2-yl)ureido)acetate] | 278 °C | viability at 0.5 µM [1, 2]: 62% |
| O=C(O)CCCNC(=O)Nc1nc2ccccc2s1 [KHG26025, 4-(3-benzo[d]thiazole-2-ylureido)butanoic acid] | 210 °C | viability at 0.1 µM ([1]; compound 100 nM for 24 hours after 50 μM beta-amyloid for 2 hours): 73%; viability at 1 µM ([1]; compound 1000 nM for 24 hours after 50 μM beta-amyloid for 2 hours): 89%; viability at 50 µM [1, 4]: 90% |
| CCOC(=O)CNC(=S)Nc1nc2ccc(F)cc2s1 [KHG26310, ethyl 2-(3-(6-fluorobenzo[d]thiazole-2-yl)thioureido)acetate] | 160 °C | viability at 0.5 µM [1, 3]: 30% |
| CCOC(=O)CNC(=O)Nc1nc2ccc(Cl)cc2s1 [KHG26349, ethyl 2-(3-(6-chlorobenzo[d]thiazole-2-yl)ureido)acetate] | 295 °C | – |
| O=C(NCCO)Nc1nc2ccccc2s1 [KHG26279, 1-(benzo[d]thiazole-2-yl)-3-(2-hydroxyethyl)urea] | 223 °C | viability at 0.5 µM [1, 3]: 36% |
| Cn1c(NC(=S)NCC(=O)O)nc2ccccc21 [KHG26334, 2-(3-(1-methyl-1H-benzo[d]imidazole-2-yl)thioureido)acetic acid] | 172 °C | viability at 0.5 µM [1, 3]: 75% |
| O=C([O-])CCNC(=O)Nc1nc2ccccc2s1.[K+] [KHG26220, potassium 3-(3-benzo[d]thiazole-2-ylureido)propanoate] | 249 °C | viability at 0.5 µM [1, 2]: 33% |
| Cn1c(NC(=O)NCCCC(=O)O)nc2ccccc21 [KHG26358, 4-(3-(1-methyl-1H-benzo[d]imidazole-2-yl)ureido)butanoic acid] | 197 °C | – |

| Compound | melting point | further results |
| --- | --- | --- |
| CCOC(=O)CCCNC(=O)Nc1nc2ccccc2[nH]1 [KHG26028, ethyl 4-(3-1H-benzo[d]imidazole-2-ylureido)butanoate] | 277 °C | viability at 50 µM [1, 4]: 34% |
| CCOC(=O)CCCNC(=O)Nc1nc2ccccc2s1 [KHG26004, ethyl 4-(3-benzo[d]thiazole-2-ylureido)butanoate] | 278 °C | viability at 50 µM [1, 4]: 37% |
| CCOC(=O)CNC(=O)Nc1nc2ccc(OCC)cc2s1 [KHG26347, ethyl 2-(3-(6-ethoxybenzo[d]thiazole-2-yl)ureido)acetate] | 264 °C | – |
| Cn1c(NC(=O)NCC(=O)O)nc2ccccc21 [KHG26280, 2-(3-(1-methyl-1H-benzo[d]imidazole-2-yl)ureido)acetic acid] | 200 °C | viability at 0.5 µM [1, 3]: 33% |
| CCOC(=O)CNC(=S)Nc1nc2ccc(Cl)cc2s1 [KHG26311, ethyl 2-(3-(6-chlorobenzo[d]thiazole-2-yl)thioureido)acetate] | 184 °C | viability at 0.5 µM [1, 3]: 67% |
| COc1ccc2nc(NC(=O)NCC(=O)O)sc2c1 [KHG26175, potassium 2-(3-(6-methoxybenzo[d]thiazole-2-yl)ureido)acetate] | – | viability at 0.5 µM [1, 2]: 76% |
| CCOC(=O)CNC(=S)Nc1nc2cc(C)c(C)cc2s1 [KHG26307, ethyl 2-(3-(5,6-dimethylbenzo[d]thiazole-2-yl)thioureido)acetate] | 255 °C | viability at 0.5 µM [1, 3]: 48% |
| O=C([O-])CCCNC(=O)Nc1nc2ccccc2s1.[K+] [KHG26221, potassium 4-(3-benzo[d]thiazole-2-ylureido)butanoate] | 241 °C | viability at 0.5 µM [1, 2]: 44% |
| CCOC(=O)CNC(=S)Nc1nc2ccccc2s1 [KHG26304, ethyl 2-(3-benzo[d]thiazole-2-ylthioureido)acetate] | 204 °C | viability at 0.5 µM [1, 3]: 41% |
| COc1ccc2nc(NC(=O)NCC(=O)O)sc2c1 [KHG26346, 2-(3-(6-methoxybenzo[d]thiazole-2-yl)ureido)acetic acid] | 198.3 °C | – |
| CCOC(=O)CNC(=O)Nc1nc2c(Cl)cccc2s1 [KHG26351, ethyl 2-(3-(4-chlorobenzo[d]thiazole-2-yl)ureido)acetate] | 213 °C | – |
| CCOc1ccc2nc(NC(=O)NCC(=O)O)sc2c1 [KHG26348, 2-(3-(6-ethoxybenzo[d]thiazole-2-yl)ureido)acetic acid] | 197 °C | – |
| O=C(O)CNC(=O)Nc1nc2ccccc2s1 [KHG26096, potassium 2-(3-benzo[d]thiazole-2-ylureido)acetate] | – | viability at 0.5 µM [1, 2]: 72% |
| CCNC(=O)Nc1nc2ccccc2s1 [KHG26332, 1-(benzo[d]thiazole-2-yl)-3-ethylurea] | – | viability at 50 µM ([1]; BV-2, read-out: cell viability by MTT analysis, compound 50 μM for 24 hours after 50 μM beta-amyloid for 2 hours): 18% |
| O=C(O)CNC(=O)Nc1nc2c(Cl)cccc2s1 [KHG26352, 2-(3-(4-chlorobenzo[d]thiazole-2-yl)ureido)acetic acid] | 198 °C | – |
| O=C(O)CNC(=O)Nc1nc2ccc(Cl)cc2s1 [KHG26350, 2-(3-(6-chlorobenzo[d]thiazole-2-yl)ureido)acetic acid] | 216 °C | – |
| Cc1ccc(CNC(=O)Nc2nc3ccc(Cl)cc3o2)cc1 [KHG25990] | – | viability at 50 µM [1, 4]: 37% |
| Cc1cccc2sc(NC(=O)NCC(=O)O)nc12 [KHG26356, 2-(3-(4-methylbenzo[d]thiazole-2-yl)ureido)acetic acid] | 203 °C | – |
